In patent US20230138400A1, “METHODS AND PHARMACEUTICAL COMPOSITIONS FOR REPROGRAMING IMMUNE ENVIRONMENT IN A SUBJECT IN NEED THEREOF” (INSERM (INSTITUT NATIONAL DE LA SANTE ET DE LA RECHERCHE …, priority 2016, published 2023):

Test system: E0771 tumor
Assay: Infiltration of immune cells inside E0771 tumor, flow cytometry
Format: in vivo, mouse
Conditions: 0.37 μg/kg DDA, day 15 post treatment
Description: FIGS. 5A-D. Infiltration of immune cells inside E0771 tumor. (A-D) These bar graphs represent the ratio between (A) Th1 (CD4+ Tbet+) and Treg (CD4+ Foxp3+), (B) CTL cells (CD8+ Granzym B+) on No CTL cells (CD8+ Granzym b−), (C) macrophage type M1 (CD14+ CCR7+ IFNg+) and type M2 (CD14+ CD206+ IL10+) (D) dendritic cells (CD11c+) and myeloid derived suppressive cells (MDSC: CD11b+CD11clow, LY6C+ly6Gint) infiltrated inside the tumor. The tumors were removed at day 15 post treatment with DDA at 0.37 μg/kg (b) or with the solvent vehicle (control) (a). To observe the cytotoxic CD8 T cells, the tumor suspension was prealably stimulated 2 h in vitro with a cocktail of PMA (50 ng/ml), ionomycine (500 ng/ml) and golgistop (concentration from manufacture BD Pharmagen), then the cells were stained with specific antibodies.
Tumor dissociation: Freshly excised tumors were trimmed of skin, fat, and necrotic tissue and minced in cold Hanks' medium. The minced tumor pieces were placed in an enzyme solution consisting of collagenase type D at 1 mg/ml and DNase type 1 at 20 μg/ml in Hanks' medium at 37° C. After 30 min of dissociation, the cell suspension was collected, washed with Hank's medium, and then suspended in PBS 1×, 0.5% BSA, 0.02% azide and […] EDTA (Facs medium).
Analysis of immune cells by flow cytometry. Immune cells from the tumors were stained with the indicated fluorescent-labelled antibodies: anti mouse α-CD4, α-CD8, α-T-bet, α-Foxp3, α-granzyme B, α-PD-1, α-CD44, α-Ly6C, α-Ly6G, α-CD11b, α-CD11c, α-CD206, α-CD86, α-IL10, α-IL-6, α-IL-4 purchased from eBioscience or Biolegend. Intracellular staining for T-bet, Foxp3, IFNg, Granzyme B, IL-10, IL-4 and IL-6 was performed according the manufacturer's protocol from Biolegend. To observe the cytotoxic CD8 T cells, the tumor suspension was prealably stimulated 2 h in vitro with a cocktail of PMA (50 ng/ml), ionomycine (500 ng/ml) and golgistop (concentration from manufacture BD Pharmingen), then the cells were stained with specific antibodies. To set the gates, flow cytometry dot plots were based on comparison with isotype control. Flow cytometry measurements of single-cells suspension were performed on a Fortessa 20X (BD pharmingen) and data were analyzed using FlowJo software.

CC(C)CCCC(C)[C@H]1CCC2C3C[C@@H](NCCc4cnc[nH]4)[C@@]4(O)C[C@@H](O)CC[C@]4(C)C3CC[C@@]21C (some centres unmarked) [DDA, 5a-hydroxy-6b-[2-(1H-imidazol-4-yl)ethylamino]cholestan-3b-ol]
decreases: infiltration into the tumor of inactivated CD8 (No CTL) | infiltration into the tumor of macrophage type M2 | infiltration into the tumor of myeloid derived suppressive cells (MDSC) | infiltration into the tumor of regulatory CD4 Treg cells
increases: infiltration of CD4 Th1 cells inside the tumor | infiltration of activated CD8 (CTL) inside the tumor | infiltration of dendritic cells (DC: CD11c+) inside the tumor | infiltration of macrophage type M1 inside the tumor
